Test results: ChEMBL document CHEMBL4507265 (2021)

Experiments:
[1] = target: Homeodomain-interacting protein kinase 4 (Homo sapiens) (UniProt Q8NE63); details: Compound concentration 1000.0 nM
[2] = target: Aurora kinase C (Homo sapiens) (UniProt Q9UQB9); details: Compound concentration 1000.0 nM
[3] = test system: Receptor-type tyrosine-protein kinase FLT3 (Homo sapiens), P36888 [N841I]; details: Compound concentration 1000.0 nM
[4] = target: Serine/threonine-protein kinase MARK1 (Homo sapiens) (UniProt Q9P0L2); details: Compound concentration 1000.0 nM
[5] = target: Vascular endothelial growth factor receptor 2 (Homo sapiens) (UniProt P35968); details: Compound concentration 1000.0 nM
[6] = target: Tyrosine-protein kinase Mer (Homo sapiens) (UniProt Q12866); details: Compound concentration 1000.0 nM
[7] = target: MAP/microtubule affinity-regulating kinase 3 (Homo sapiens) (UniProt P27448); details: Compound concentration 1000.0 nM
[8] = target: RAC-beta serine/threonine-protein kinase (Homo sapiens) (UniProt P31751); details: Compound concentration 1000.0 nM
[9] = target: Fibroblast growth factor receptor 3 (Homo sapiens) (UniProt P22607); details: Compound concentration 1000.0 nM
[10] = target: Tyrosine-protein kinase receptor Tie-1 (Homo sapiens) (UniProt P35590); details: Compound concentration 1000.0 nM
[11] = target: Mitogen-activated protein kinase 1 (Homo sapiens) (UniProt P28482); details: Compound concentration 1000.0 nM
[12] = target: Death-associated protein kinase 3 (Homo sapiens) (UniProt O43293); details: Compound concentration 1000.0 nM
[13] = target: cGMP-dependent protein kinase 2 (Homo sapiens) (UniProt Q13237); details: Compound concentration 1000.0 nM
[14] = target: Casein kinase I isoform epsilon (Homo sapiens) (UniProt P49674); details: Compound concentration 1000.0 nM
[15] = target: Calcium/calmodulin-dependent protein kinase type II subunit delta (Homo sapiens) (UniProt Q13557); details: Compound concentration 1000.0 nM
[16] = target: Dual specificity mitogen-activated protein kinase kinase 7 (Homo sapiens) (UniProt O14733); details: Compound concentration 1000.0 nM
[17] = target: Mitogen-activated protein kinase 14 (Homo sapiens) (UniProt Q16539); details: Compound concentration 1000.0 nM
[18] = target: Serine/threonine-protein kinase PLK4 (Homo sapiens) (UniProt O00444); details: Compound concentration 1000.0 nM
[19] = target: T1, Muscarinic acetylcholine receptor M1 (Homo sapiens) (UniProt P11229); details: Compound concentration 10.0 uM
T1 sequence (whole entry): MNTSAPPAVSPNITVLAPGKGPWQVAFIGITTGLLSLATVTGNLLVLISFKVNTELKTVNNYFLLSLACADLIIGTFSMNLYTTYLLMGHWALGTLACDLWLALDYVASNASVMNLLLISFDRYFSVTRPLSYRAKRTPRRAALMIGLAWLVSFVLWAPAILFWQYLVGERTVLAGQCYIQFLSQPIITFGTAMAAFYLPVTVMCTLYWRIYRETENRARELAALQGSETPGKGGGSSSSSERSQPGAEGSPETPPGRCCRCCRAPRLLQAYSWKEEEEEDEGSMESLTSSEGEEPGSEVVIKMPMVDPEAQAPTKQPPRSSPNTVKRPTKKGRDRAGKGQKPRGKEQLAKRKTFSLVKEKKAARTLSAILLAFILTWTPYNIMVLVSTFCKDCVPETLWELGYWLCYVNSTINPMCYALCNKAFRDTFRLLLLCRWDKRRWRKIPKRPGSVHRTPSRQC

[20] = test system: Tyrosine-protein kinase ABL1 (Homo sapiens), P00519 [E255K]; details: Compound concentration 1000.0 nM
[21] = test system: Phosphatidylinositol 4,5-bisphosphate 3-kinase catalytic subunit alpha isoform (Homo sapiens), P42336 [H1047Y]; details: Compound concentration 1000.0 nM
[22] = target: Mitogen-activated protein kinase kinase kinase 12 (Homo sapiens) (UniProt Q12852); details: Compound concentration 1000.0 nM
[23] = test system: Proto-oncogene tyrosine-protein kinase receptor Ret (Homo sapiens), P07949 [M918T]; details: Compound concentration 1000.0 nM
[24] = target: Insulin-like growth factor 1 receptor (Homo sapiens) (UniProt P08069); details: Compound concentration 1000.0 nM
[25] = target: Mitogen-activated protein kinase kinase kinase 5 (Homo sapiens) (UniProt Q99683); details: Compound concentration 1000.0 nM
[26] = target: High affinity nerve growth factor receptor (Homo sapiens) (UniProt P04629); details: Compound concentration 1000.0 nM
[27] = test system: Mast/stem cell growth factor receptor Kit (Homo sapiens), P10721 [V559D]; details: Compound concentration 1000.0 nM
[28] = test system: Hepatocyte growth factor receptor (Homo sapiens), P08581 [Y1235D]; details: Compound concentration 1000.0 nM
[29] = target: Tyrosine-protein kinase Fer (Homo sapiens) (UniProt P16591); details: Compound concentration 1000.0 nM
[30] = target: Serine/threonine-protein kinase B-raf (Homo sapiens) (UniProt P15056); details: Compound concentration 1000.0 nM
[31] = target: Cyclin-dependent kinase 7 (Homo sapiens) (UniProt P50613); details: Compound concentration 1000.0 nM
[32] = target: Serine/threonine-protein kinase Sgk1 (Homo sapiens) (UniProt O00141); details: Compound concentration 1000.0 nM
[33] = target: Tyrosine-protein kinase Fyn (Homo sapiens) (UniProt P06241); details: Compound concentration 1000.0 nM
[34] = target: Tyrosine-protein kinase Fgr (Homo sapiens) (UniProt P09769); details: Compound concentration 1000.0 nM
[35] = target: 1-phosphatidylinositol 3-phosphate 5-kinase (Homo sapiens) (UniProt Q9Y2I7); details: Compound concentration 1000.0 nM
[36] = target: Tyrosine-protein kinase Fes/Fps (Homo sapiens) (UniProt P07332); details: Compound concentration 1000.0 nM
[37] = target: Cyclin-G-associated kinase (Homo sapiens) (UniProt O14976); details: Compound concentration 1000.0 nM
[38] = target: Serine/threonine-protein kinase Sgk2 (Homo sapiens) (UniProt Q9HBY8); details: Compound concentration 1000.0 nM
[39] = target: RAF proto-oncogene serine/threonine-protein kinase (Homo sapiens) (UniProt P04049); details: Compound concentration 1000.0 nM

Tyrosine-protein kinase Fes/Fps (Homo sapiens), sequence (P07332 whole entry): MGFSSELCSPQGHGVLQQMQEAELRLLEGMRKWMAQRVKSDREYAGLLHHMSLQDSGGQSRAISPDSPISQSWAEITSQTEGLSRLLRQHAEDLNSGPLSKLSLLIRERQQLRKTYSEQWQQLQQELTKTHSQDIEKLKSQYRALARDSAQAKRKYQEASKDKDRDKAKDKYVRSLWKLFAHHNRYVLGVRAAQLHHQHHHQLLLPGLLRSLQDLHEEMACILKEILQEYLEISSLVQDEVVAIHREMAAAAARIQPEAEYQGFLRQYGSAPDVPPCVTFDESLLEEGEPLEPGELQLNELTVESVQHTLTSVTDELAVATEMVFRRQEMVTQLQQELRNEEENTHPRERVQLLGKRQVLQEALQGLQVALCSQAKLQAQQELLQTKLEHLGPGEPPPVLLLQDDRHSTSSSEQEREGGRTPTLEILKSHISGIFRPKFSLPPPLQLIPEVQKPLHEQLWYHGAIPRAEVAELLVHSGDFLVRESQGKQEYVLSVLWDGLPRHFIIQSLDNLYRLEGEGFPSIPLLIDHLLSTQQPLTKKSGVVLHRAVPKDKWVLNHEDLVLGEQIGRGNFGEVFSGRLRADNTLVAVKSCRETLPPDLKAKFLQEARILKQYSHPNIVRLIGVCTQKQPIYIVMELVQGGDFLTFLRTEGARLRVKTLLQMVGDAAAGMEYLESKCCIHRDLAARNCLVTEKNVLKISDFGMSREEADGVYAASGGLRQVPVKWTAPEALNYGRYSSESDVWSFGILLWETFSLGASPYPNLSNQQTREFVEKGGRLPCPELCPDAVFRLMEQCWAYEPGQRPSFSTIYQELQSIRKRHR
Insulin-like growth factor 1 receptor (Homo sapiens), sequence (P08069 31-736 limits assumed): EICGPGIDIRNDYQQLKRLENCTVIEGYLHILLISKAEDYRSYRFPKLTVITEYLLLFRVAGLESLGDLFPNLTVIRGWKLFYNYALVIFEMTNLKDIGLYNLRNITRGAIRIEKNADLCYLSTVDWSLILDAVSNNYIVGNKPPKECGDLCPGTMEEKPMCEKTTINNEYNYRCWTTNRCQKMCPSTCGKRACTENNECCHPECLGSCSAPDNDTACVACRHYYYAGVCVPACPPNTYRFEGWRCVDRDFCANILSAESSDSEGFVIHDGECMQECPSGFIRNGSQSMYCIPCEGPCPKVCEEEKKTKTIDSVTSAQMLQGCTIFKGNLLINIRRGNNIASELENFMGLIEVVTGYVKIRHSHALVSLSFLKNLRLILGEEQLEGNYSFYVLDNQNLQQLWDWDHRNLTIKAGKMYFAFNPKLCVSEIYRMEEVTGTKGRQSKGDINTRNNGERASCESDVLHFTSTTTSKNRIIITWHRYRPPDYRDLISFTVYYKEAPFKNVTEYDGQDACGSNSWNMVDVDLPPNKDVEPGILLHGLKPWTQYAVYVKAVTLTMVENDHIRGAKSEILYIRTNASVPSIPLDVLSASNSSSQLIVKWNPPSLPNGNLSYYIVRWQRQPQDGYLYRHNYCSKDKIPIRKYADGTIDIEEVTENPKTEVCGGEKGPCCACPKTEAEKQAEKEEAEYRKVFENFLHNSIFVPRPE
Insulin-like growth factor 1 receptor (Homo sapiens), sequence (P08069 741-1367 limits assumed): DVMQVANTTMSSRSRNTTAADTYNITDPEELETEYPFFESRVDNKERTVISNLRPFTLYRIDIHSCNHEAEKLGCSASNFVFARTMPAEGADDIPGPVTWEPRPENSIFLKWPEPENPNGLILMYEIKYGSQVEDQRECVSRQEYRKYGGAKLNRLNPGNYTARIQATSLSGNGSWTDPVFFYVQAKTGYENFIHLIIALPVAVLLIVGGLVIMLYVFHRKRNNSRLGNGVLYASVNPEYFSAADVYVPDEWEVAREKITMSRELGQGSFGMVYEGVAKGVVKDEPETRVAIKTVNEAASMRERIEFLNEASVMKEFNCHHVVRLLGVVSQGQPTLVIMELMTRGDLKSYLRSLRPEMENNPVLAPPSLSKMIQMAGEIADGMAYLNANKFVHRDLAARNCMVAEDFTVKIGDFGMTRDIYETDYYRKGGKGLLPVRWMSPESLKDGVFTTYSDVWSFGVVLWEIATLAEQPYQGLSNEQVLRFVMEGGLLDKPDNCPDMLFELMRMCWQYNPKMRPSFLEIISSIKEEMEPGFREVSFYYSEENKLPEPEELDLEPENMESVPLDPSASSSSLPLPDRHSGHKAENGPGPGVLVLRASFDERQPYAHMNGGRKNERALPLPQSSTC
Tyrosine-protein kinase Mer (Homo sapiens), sequence (Q12866 whole entry): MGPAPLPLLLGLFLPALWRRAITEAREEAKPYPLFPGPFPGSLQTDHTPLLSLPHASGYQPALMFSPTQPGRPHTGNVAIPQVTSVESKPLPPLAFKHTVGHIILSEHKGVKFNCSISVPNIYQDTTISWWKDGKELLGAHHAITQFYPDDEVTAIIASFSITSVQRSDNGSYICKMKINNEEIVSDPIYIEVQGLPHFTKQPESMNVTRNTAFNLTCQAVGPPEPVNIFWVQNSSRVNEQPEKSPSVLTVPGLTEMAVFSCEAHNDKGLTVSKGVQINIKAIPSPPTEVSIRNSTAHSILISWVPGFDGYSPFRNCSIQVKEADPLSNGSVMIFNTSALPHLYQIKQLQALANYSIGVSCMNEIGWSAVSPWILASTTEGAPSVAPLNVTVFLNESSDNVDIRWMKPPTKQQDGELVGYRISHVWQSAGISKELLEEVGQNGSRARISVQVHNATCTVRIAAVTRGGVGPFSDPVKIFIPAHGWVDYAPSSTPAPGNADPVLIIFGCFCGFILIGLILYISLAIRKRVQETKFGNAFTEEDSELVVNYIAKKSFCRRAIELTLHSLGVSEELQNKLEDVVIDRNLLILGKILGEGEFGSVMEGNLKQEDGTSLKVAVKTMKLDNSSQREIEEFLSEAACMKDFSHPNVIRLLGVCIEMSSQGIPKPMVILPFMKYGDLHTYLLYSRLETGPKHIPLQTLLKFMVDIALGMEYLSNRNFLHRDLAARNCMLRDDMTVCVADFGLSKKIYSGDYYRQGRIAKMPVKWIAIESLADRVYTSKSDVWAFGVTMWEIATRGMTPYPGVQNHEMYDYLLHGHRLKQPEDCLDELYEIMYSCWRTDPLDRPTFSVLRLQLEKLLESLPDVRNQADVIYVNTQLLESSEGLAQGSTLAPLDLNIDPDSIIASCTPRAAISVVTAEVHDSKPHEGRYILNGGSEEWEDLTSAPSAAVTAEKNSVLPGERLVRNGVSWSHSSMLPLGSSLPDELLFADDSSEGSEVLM
Vascular endothelial growth factor receptor 2 (Homo sapiens), sequence (P35968 whole entry): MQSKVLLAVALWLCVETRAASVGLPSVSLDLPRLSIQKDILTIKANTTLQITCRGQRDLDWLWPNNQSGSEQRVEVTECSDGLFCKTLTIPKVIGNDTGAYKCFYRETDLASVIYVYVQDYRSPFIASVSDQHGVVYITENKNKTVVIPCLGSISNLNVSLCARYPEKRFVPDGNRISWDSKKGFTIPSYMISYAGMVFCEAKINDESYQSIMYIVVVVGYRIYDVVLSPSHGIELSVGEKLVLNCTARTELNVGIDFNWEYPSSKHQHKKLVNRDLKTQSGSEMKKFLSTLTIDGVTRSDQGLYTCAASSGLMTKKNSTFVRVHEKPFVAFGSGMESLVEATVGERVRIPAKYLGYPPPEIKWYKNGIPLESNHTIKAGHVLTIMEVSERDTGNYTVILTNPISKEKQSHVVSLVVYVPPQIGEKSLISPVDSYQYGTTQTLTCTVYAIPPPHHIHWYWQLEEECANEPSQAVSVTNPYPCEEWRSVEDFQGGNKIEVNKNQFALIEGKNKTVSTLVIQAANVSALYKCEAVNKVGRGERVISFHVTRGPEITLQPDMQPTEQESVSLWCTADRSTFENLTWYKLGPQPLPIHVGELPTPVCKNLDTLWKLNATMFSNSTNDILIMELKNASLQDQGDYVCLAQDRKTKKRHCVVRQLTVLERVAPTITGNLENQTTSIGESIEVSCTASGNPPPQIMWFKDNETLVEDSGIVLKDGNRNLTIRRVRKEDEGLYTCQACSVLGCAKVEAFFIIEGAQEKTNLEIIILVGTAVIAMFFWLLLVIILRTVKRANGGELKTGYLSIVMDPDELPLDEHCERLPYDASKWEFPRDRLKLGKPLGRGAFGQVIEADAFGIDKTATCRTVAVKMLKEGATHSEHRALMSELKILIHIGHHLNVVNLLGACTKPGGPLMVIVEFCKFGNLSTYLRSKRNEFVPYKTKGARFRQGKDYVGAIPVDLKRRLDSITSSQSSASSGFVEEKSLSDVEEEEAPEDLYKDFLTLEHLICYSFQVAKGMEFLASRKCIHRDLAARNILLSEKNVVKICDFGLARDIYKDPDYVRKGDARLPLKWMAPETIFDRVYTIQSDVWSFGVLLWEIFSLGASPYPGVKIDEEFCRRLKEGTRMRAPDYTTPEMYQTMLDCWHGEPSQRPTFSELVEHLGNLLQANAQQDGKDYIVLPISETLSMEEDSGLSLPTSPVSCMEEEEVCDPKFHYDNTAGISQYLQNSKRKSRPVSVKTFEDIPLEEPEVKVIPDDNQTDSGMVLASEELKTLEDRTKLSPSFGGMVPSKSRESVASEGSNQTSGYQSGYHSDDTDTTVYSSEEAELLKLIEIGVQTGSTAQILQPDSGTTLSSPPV
Calcium/calmodulin-dependent protein kinase type II subunit delta (Homo sapiens), sequence (Q13557 whole entry): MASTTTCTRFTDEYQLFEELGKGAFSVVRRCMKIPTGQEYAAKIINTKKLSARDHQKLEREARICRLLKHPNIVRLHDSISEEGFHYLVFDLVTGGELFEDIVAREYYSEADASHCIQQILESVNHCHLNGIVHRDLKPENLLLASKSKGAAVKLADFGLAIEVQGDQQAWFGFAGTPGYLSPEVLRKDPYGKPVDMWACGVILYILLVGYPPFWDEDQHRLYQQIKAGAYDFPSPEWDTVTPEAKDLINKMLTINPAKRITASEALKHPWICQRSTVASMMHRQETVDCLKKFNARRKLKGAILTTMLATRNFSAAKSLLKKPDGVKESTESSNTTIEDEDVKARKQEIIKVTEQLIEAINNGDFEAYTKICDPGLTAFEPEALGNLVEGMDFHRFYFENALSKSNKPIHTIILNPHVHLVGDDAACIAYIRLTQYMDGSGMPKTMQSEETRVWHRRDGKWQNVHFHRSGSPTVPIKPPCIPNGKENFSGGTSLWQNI

## NS(=O)(=O)c1cc(NC(=O)C2(c3ccccc3Cl)CC2)ccc1Oc1cccc(Cl)c1 [BAY-207]
[1]
  residual activity: 58%
[2]
  residual activity: 63%
[3]
  residual activity: 32%
[4]
  residual activity: 83%
[5]
  residual activity: 74%
[6]
  residual activity: 70%
[7]
  residual activity: 92%
[8]
  residual activity: 100%
[9]
  residual activity: 100%
[10]
  residual activity: 85%
[11]
  residual activity: 75%
[12]
  residual activity: 100%
[13]
  residual activity: 100%
[14]
  residual activity: 64%
[15]
  residual activity: 100%
[16]
  residual activity: 100%
[17]
  residual activity: 100%
[18]
  residual activity: 87%
[19]
  inhibition: -3.55%
[20]
  residual activity: 72%
[21]
  residual activity: 76%
[22]
  residual activity: 100%
[23]
  residual activity: 71%
[24]
  residual activity: 80%
[25]
  residual activity: 88%
[26]
  residual activity: 100%
[27]
  residual activity: 79%
[28]
  residual activity: 61%
[29]
  residual activity: 83%
[30]
  residual activity: 71%
[31]
  residual activity: 82%
[32]
  residual activity: 100%
[33]
  residual activity: 100%
[34]
  residual activity: 54%
[35]
  residual activity: 100%
[36]
  residual activity: 64%
[37]
  residual activity: 76%
[38]
  residual activity: 100%
[39]
  residual activity: 81%

## NS(=O)(=O)c1cc(NC(=O)Cc2ccccc2)ccc1Oc1cccc(Cl)c1 [BAY-1797]
[1]
  residual activity: 100%
[2]
  residual activity: 100%
[3]
  residual activity: 55%
[4]
  residual activity: 100%
[5]
  residual activity: 77%
[6]
  residual activity: 82%
[7]
  residual activity: 100%
[8]
  residual activity: 100%
[9]
  residual activity: 86%
[10]
  residual activity: 100%
[11]
  residual activity: 71%
[12]
  residual activity: 95%
[13]
  residual activity: 86%
[14]
  residual activity: 100%
[15]
  residual activity: 97%
[16]
  residual activity: 91%
[17]
  residual activity: 100%
[18]
  residual activity: 92%
[19]
  inhibition: 11.4%
[20]
  residual activity: 69%
[21]
  residual activity: 81%
[22]
  residual activity: 80%
[23]
  residual activity: 83%
[24]
  residual activity: 100%
[25]
  residual activity: 100%
[26]
  residual activity: 73%
[27]
  residual activity: 81%
[28]
  residual activity: 100%
[29]
  residual activity: 73%
[30]
  residual activity: 96%
[31]
  residual activity: 64%
[32]
  residual activity: 87%
[33]
  residual activity: 69%
[34]
  residual activity: 100%
[35]
  residual activity: 95%
[36]
  residual activity: 92%
[37]
  residual activity: 99%
[38]
  residual activity: 85%
[39]
  residual activity: 100%
